Data: ChEMBL document CHEMBL3763070, “Development of CINPA1 analogs as novel and potent inverse agonists of constitutive androstane receptor” (Eur J Med Chem, 2016)

Target: T1, Nuclear receptor subfamily 1 group I member 3 (Homo sapiens, UniProt Q14994)
T1 sequence (Q14994 whole entry): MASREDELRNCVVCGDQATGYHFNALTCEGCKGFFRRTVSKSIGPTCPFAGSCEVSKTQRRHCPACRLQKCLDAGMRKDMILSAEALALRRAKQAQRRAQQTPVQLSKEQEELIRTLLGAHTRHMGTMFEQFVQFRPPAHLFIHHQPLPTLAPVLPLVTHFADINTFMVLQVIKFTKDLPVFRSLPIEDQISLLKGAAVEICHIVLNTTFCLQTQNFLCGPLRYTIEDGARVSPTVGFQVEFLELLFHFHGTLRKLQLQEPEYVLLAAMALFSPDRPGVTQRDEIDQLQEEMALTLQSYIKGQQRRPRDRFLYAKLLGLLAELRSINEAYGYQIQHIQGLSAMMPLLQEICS
Test: Inverse agonist activity at GST tagged-human CAR-LBD assessed as reduction in fluorescein-PGC1 alpha coactivator recruitment after 1 hr by TR-FRET assay

IC50 [µM]	Compound
0.0319	CC(C)(C)OC(=O)Nc1ccc2c(c1)N(C(=O)Cn1cccc1)c1ccccc1CC2
1.03	CCN(CC)CC(=O)N1c2ccccc2CCc2ccc(NC(=O)OC(C)(C)C)cc21
0.116	CCCN(CCC)CC(=O)N1c2ccccc2CCc2ccc(NC(=O)OC(C)C)cc21
0.116	CC(C)OCC(=O)N1c2ccccc2CCc2ccc(NC(=O)OC(C)(C)C)cc21
> 70	CCOC(=O)Nc1ccc2c(c1)N(C(=O)CN)c1ccccc1CC2
0.216	CC(C)(C)OC(=O)Nc1ccc2c(c1)N(C(=O)CN1CCCCC1)c1ccccc1CC2
0.68	CCN(CC)CC(=O)N1c2ccccc2CCc2ccc(NC(=O)OC(C)C)cc21
0.0195	CC(C)OC(=O)Nc1ccc2c(c1)N(C(=O)COC1CCCC1)c1ccccc1CC2
0.0117	O=C(Nc1ccc2c(c1)N(C(=O)Cn1cccc1)c1ccccc1CC2)OC1CCCCC1
